From patent publication US20250092065A1, “2-(INDAZOL-5-YL)-6-(PIPERIDIN-4-YL)-1,7-NAPHTHYRIDINE DERIVATIVES AND RELATED COMPOUNDS AS MODULATORS FOR SPLICING NUCLEIC ACIDS AND FOR THE TREATMENT OF PROLIFERATIVE DISEASES” (REMIX THERAPEUTICS INC., priority 2022, published 2025)
Like-named read-outs stand apart in the source and are kept apart here.

Key:
K562 cells = test: Cell Titer Glo 2.0 cell viability (toxicity) assay, K562; conditions: 500 cells/well, 72 hours
MYB = test: HiBiT protein abundance assay, MYB (K562 HiBiT knock-in); format: cell-based, human; conditions: HiBiT knock-in K562 cells, 24 hours, top dose 10 μM
Outline: (§1)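 Luminescence readout: Nano-Glo HiBiT lytic detection after 24 h compound exposure of K562 HiBiT knock-in cells, 10000 cells/well. Dosing 10-pt, 3-fold, top 10 μM final. % response vs untreated parental K562 and DMSO controls; 4PL fit, IC50 = concentration giving 50% protein abundance.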

HTT mRNA = test: RT-qPCR splicing assay, HTT mRNA canonical (CJ) and alternative (AJ) junction; format: cell-based, human; conditions: Homo sapiens; for AC50: HTT alternative junction mRNA, read-out: HTT AJ (increase in AJ mRNA, AC50)
Outline: (§2)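 Junction-specific RT-qPCR read-out: CJ and AJ isoform levels, housekeeper-normalized (GAPDH/GUSB/PPIA), ΔΔCt vs DMSO, converted to RQ then % response. Cells: A673 (DMEM/10% FBS, adhered 24 h) or K562 (IMDM/10% FBS). Compound 11-pt 3-fold, top 10 uM, 24 h, 37 °C.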

HTT = test: HiBiT protein abundance assay, HTT (K562 HiBiT knock-in); format: cell-based, human; conditions: HiBiT knock-in K562 cells, 24 hours, top dose 10 μM
Outline: as §1

MYB mRNA = test: RT-qPCR splicing assay, MYB mRNA canonical (CJ) and alternative (AJ) junction; format: cell-based, human; conditions: Homo sapiens; for AC50: MYB alternative junction mRNA, read-out: MYB AJ (increase in AJ mRNA, AC50)
Outline: as §2

[1] = HTT canonical junction mRNA, RT-qPCR, read-out: HTT CJ (decrease in CJ mRNA levels, IC50)
[2] = canonical junction qPCR panel, Table 4, read-out: HTT IC50 (decrease in CJ mRNA levels)
[3] = MYB canonical junction mRNA, RT-qPCR, read-out: MYB CJ (decrease in CJ mRNA levels, IC50)
[4] = canonical junction qPCR panel, Table 4, read-out: MYB IC50 (decrease in CJ mRNA levels)

| SMILES | IC50 (MYB) | IC50 (HTT mRNA; [1]) | IC50 (HTT mRNA; [2]) | IC50 (HTT) | IC50 (MYB mRNA; [3]) | IC50 (MYB mRNA; [4]) | Effect of Exemplary Compounds on Cell Viability, K562 (K562 cells) | AC50 (HTT mRNA; RT-qPCR) | AC50 (MYB mRNA; RT-qPCR) |
| --- | --- | --- | --- | --- | --- | --- | --- | --- | --- |
| Cc1nc2cc(O)c(-c3ccc4nc(N5CC[C@H](NC6CCC6)C5)ccc4n3)cc2o1 [Compound 230] | 100 to 1000 nM | < 100 nM | < 100 nM | < 100 nM | 100 to 1000 nM | 100 to 1000 nM | B (B represents 100-1000 nM) | < 100 nM | 100 to 1000 nM |
| Cc1nc2c(C)c(O)c(-c3ccc4nc(N5CC[C@H](NC6CCC6)C5)ccc4n3)cc2o1 [Compound 237] | < 100 nM | < 100 nM | < 100 nM | < 100 nM | < 100 nM | < 100 nM | B (B represents 100-1000 nM) | < 100 nM | < 100 nM |
| Cc1cc(-c2ccc3nc(N4CCC(NC(C)(C)C)C4)ccc3n2)nc2cn(C)nc12 (stereo not drawn) [Compound 248] | 1000 to 10000 nM | 1000 to 10000 nM | 1000 to 10000 nM | 100 to 1000 nM | 1000 to 10000 nM | 1000 to 10000 nM | C (C represents 1000-9999 nM) | 100 to 1000 nM | 1000 to 10000 nM |
| Cc1c(O)c(-c2ccc3nc(N4CC[C@@H](NC(C)(C)C)C4)ccc3n2)cc2cn(C)nc12 [Compound 249] | < 100 nM | < 100 nM | < 100 nM | < 100 nM | < 100 nM | < 100 nM | A (A represents <100 nM) | < 100 nM | < 100 nM |
| Cc1c(O)c(-c2ccc3nc(N4CC[C@H](NC(C)(C)C)C4)ccc3n2)cc2cn(C)nc12 [Compound 250] | < 100 nM | < 100 nM | < 100 nM | < 100 nM | < 100 nM | < 100 nM | B (B represents 100-1000 nM) | < 100 nM | < 100 nM |
| COc1c(-c2ccc3nc(N4CCC(NC(C)(C)C)C4)ccc3n2)cc2c[nH]nc2c1C (stereo not drawn) [Compound 251] | > 10000 nM | > 10000 nM | > 10000 nM | > 10000 nM | > 10000 nM | > 10000 nM | B (B represents 100-1000 nM) | > 10000 nM | > 10000 nM |
| Cc1c(O)c(-c2ccc3nc(N4CCC(NCC5CC5)C4)ccc3n2)cc2cn(C)nc12 (stereo not drawn) [Compound 284, 5-(6-{3-[(cyclopropylmethyl)amino]pyrrolidin-1-yl}-1,5-naphthyridin-2-yl)-2,7-dimethylindazol-6-ol] | < 100 nM | < 100 nM | < 100 nM | < 100 nM | < 100 nM | < 100 nM | B (B represents 100-1000 nM) | < 100 nM | 100 to 1000 nM |

More lines, main results first:

| IC50 (MYB) | IC50 (HTT mRNA; [1]) | IC50 (HTT mRNA; [2]) | IC50 (HTT) | IC50 (MYB mRNA; [3]) | IC50 (MYB mRNA; [4]) | SMILES | Effect of Exemplary Compounds on Cell Viability, K562 (K562 cells) | AC50 (HTT mRNA; RT-qPCR) | AC50 (MYB mRNA; RT-qPCR) |
| --- | --- | --- | --- | --- | --- | --- | --- | --- | --- |
| < 100 nM | < 100 nM | < 100 nM | < 100 nM | < 100 nM | < 100 nM | Cc1nc2c(C)c(O)c(-c3ccc4nc(N5CC[C@@H](N[C@H]6C[C@H](F)C6)C5)ccc4n3)cc2o1 (single isomer, unassigned) [Compound 352] | B (B represents 100-1000 nM) | < 100 nM | < 100 nM |
| < 100 nM | < 100 nM | < 100 nM | < 100 nM | < 100 nM | < 100 nM | Cc1nc2c(F)c(O)c(-c3ccc4nc(N5CC[C@@H](NC6(C)CC6)C5)ccc4n3)cc2o1 (stereo in doubt) [Compound 326, 4-fluoro-2-methyl-6-{6-[(3 S)-3-[(1-methylcyclopropyl)amino]pyrrolidin-1-yl]-1,5-naphthyridin-2-yl}-1,3-benzoxazol-5-ol] | A (A represents <100 nM) | < 100 nM | < 100 nM |
| < 100 nM | < 100 nM | < 100 nM | < 100 nM | < 100 nM | < 100 nM | Cc1nc2c(F)c(O)c(-c3ccc4nc(N5CCC(NC6(C)CC6)C5)ccc4n3)cc2o1 (stereo in doubt) [Compound 327, 4-fluoro-2-methyl-6-{6-[(3R)-3-[(1-methylcyclopropyl)amino]pyrrolidin-1-yl]-1,5-naphthyridin-2-yl}-1,3-benzoxazol-5-ol] | B (B represents 100-1000 nM) | < 100 nM | < 100 nM |
| < 100 nM | < 100 nM | < 100 nM | < 100 nM | 100 to 1000 nM | 100 to 1000 nM | Cc1nc2c(C)c(O)c(-c3ccc4nc(N5CC[C@H](NC(C)(C)C)C5)ccc4n3)cc2o1 [Compound 214] | A (A represents <100 nM) | < 100 nM | 100 to 1000 nM |
| < 100 nM | < 100 nM | < 100 nM | < 100 nM | < 100 nM | < 100 nM | Cc1nc2c(C)c(O)c(-c3ccc4nc(N5CC[C@H](NC6CC6)C5)ccc4n3)cc2o1 [Compound 216] | B (B represents 100-1000 nM) | < 100 nM | < 100 nM |
| < 100 nM | < 100 nM | < 100 nM | < 100 nM | < 100 nM | < 100 nM | Cc1nc2c(C)c(O)c(-c3ccc4nc(N5CC[C@@H](NC6CC6)C5)ccc4n3)cc2o1 [Compound 217] | B (B represents 100-1000 nM) | < 100 nM | < 100 nM |
| < 100 nM | < 100 nM | < 100 nM | < 100 nM | < 100 nM | < 100 nM | Cn1cc2cc(-c3ccc4nc(N5CCC(NC6(C)CC6)C5)ccc4n3)c(O)cc2n1 (stereo not drawn) [Compound 219] | A (A represents <100 nM) | < 100 nM | < 100 nM |
| < 100 nM | < 100 nM | < 100 nM | < 100 nM | < 100 nM | < 100 nM | Cc1nc2cc(O)c(-c3ccc4nc(N5CC[C@@H](NC6CCC6)C5)ccc4n3)cc2o1 [Compound 229] | B (B represents 100-1000 nM) | < 100 nM | < 100 nM |
| < 100 nM | < 100 nM | < 100 nM | < 100 nM | < 100 nM | < 100 nM | Cc1nc2cc(O)c(-c3ccc4nc(N5CCC(NC(C)C)C5)ccc4n3)cc2o1 (stereo not drawn) [Compound 231] | A (A represents <100 nM) | < 100 nM | < 100 nM |
| < 100 nM | < 100 nM | < 100 nM | < 100 nM | < 100 nM | < 100 nM | Cc1nc2c(C)c(O)c(-c3ccc4nc(N5CCC(NC6CCC6)C5)ccc4n3)cc2o1 (stereo not drawn) [Compound 235] | B (B represents 100-1000 nM) | < 100 nM | < 100 nM |
| < 100 nM | < 100 nM | < 100 nM | < 100 nM | < 100 nM | < 100 nM | Cc1nc2c(C)c(O)c(-c3ccc4nc(N5CC[C@@H](NC6CCC6)C5)ccc4n3)cc2o1 [Compound 236] | B (B represents 100-1000 nM) | < 100 nM | < 100 nM |
